Reference: PMC6465675, “Design, Synthesis, Antiviral Evaluation, and SAR Studies of New 1-(Phenylsulfonyl)-1H-Pyrazol−4-yl-Methylaniline Derivatives” (Frontiers in Chemistry, 2019)

Legend:
DENV-2 [1] = tested on: DENV-2
in vitro [2] = conditions: Mesocricetus auratus (hamster)
DENV-2 [3] = test: microbe, parasite or virus in culture; conditions: Dengue virus, DENV2, BHK, read-out: DENV-2 EC50
in vitro [4] = conditions: Bos taurus (cattle)
in vitro [5] = conditions: Cercopithecus aethiops (monkey), Vero76 CC50
in vitro [6] = conditions: human
YFV [7] = tested on: YFV
RSV [8] = tested on: RSV
YFV [9] = test: microbe, parasite or virus in culture; conditions: Yellow fever virus, BHK, read-out: YFV EC50
RSV [10] = test: microbe, parasite or virus in culture; conditions: human respiratory syncytial virus, Vero 76, read-out: RSV EC50
BVDV [11] = test: microbe, parasite or virus in culture; conditions: Bovine viral diarrhea virus isolates and strains, MDBK, read-out: BVDV EC50
BVDV [12] = tested on: BVDV

SMILES	SI CC50/EC50 (DENV-2) (DENV-2 [1])	CC50 (in vitro [2]) [µM]	EC50 (DENV-2 [3]) [µM]	melting point [°C]	CC50 (in vitro [4]) [µM]	CC50 (in vitro [5]) [µM]	CC50 (in vitro [6]) [µM]	SI CC50/EC50 (YFV) (YFV [7])	SI CC50/EC50 (RSV) (RSV [8])	EC50 (YFV [9]) [µM]	EC50 (RSV [10]) [µM]	EC50 (BVDV [11]) [µM]	SI CC50/EC50 (BVDV) (BVDV [12])
Cc1ccc(-c2nn(-c3ccccc3)cc2CNc2ccccc2)cc1 [1a]	>3.3	> 100	30 ± 4	–	–	–	–	–	–	–	–	–	–
Brc1ccc(-c2nn(-c3ccccc3)cc2CNc2ccccc2)cc1 [1b]	>4.5	> 100	22 ± 6	–	–	–	–	–	–	–	–	–	–
Brc1ccc(NCc2cn(-c3ccccc3)nc2-c2ccccc2)cc1 [1c]	–	> 100	–	–	–	–	–	–	–	–	–	–	–
Clc1ccc(-c2nn(-c3ccccc3)cc2CNc2ccc(Br)cc2)cc1 [1d]	>9.1	> 100	11 ± 0.4	–	–	–	–	–	–	–	–	–	–
Clc1ccc(NCc2cn(-c3ccccc3)nc2-c2ccccc2)cc1 [1h]	>7.7	> 100	13 ± 5	–	–	–	–	–	–	–	–	–	–
Cc1ccc(-c2nn(-c3ccccc3)cc2CNc2ccc(Cl)cc2)cc1 [1k]	>8.3	> 100	12.1 ± 3	–	–	–	–	–	–	–	–	–	–
Clc1ccc(NCc2cn(-c3ccccc3)nc2-c2ccc(Br)cc2)cc1 [1l]	>7.8	> 100	12.9 ± 2.3	–	–	–	–	–	–	–	–	–	–
Cc1ccc(NCc2cn(-c3ccccc3)nc2-c2ccccc2)cc1 [1m]	>8.9	> 100	11.2 ± 3.6	–	–	–	–	–	–	–	–	–	–
O=S(=O)(c1ccccc1)n1cc(CNc2ccccc2)c(-c2ccccc2)n1 [7a, N-[(3-Phenyl-1-(phenysulfonyl)-1H-pyrazol-4-yl)methyl]aniline]	–	> 100	–	139	> 100	> 100	> 100	–	–	–	–	–	–
Cc1ccc(NCc2cn(S(=O)(=O)c3ccccc3)nc2-c2ccccc2)cc1 [7d, 4-Methyl-N-[(3-phenyl-1-(phenylsulfonyl)-1H-pyrazol-4-yl)methyl]aniline]	–	> 100	–	199	> 100	≥ 100	> 100	–	–	–	–	–	–
O=S(=O)(c1ccccc1)n1cc(CNc2ccccc2)c(-c2ccc(Cl)cc2)n1 [7i, N-[(3-(4-Chlorophenyl)-1-(phenylsulfonyl)-1H-pyrazol-4-yl)methyl]aniline]	–	> 100	–	117 to 118	> 100	> 100	> 100	>13.9	>8.5	7.2 ± 0.9	11.8 ± 2.5	–	–
O=S(=O)(c1ccccc1)n1cc(CNc2ccc(Br)cc2)c(-c2ccc(Cl)cc2)n1 [7k, 4-Bromo-N-[(3-(4-chlorophenyl)-1-(phenylsulfonyl)-1H-pyrazol-4-yl)methyl]aniline]	–	> 100	–	142 to 143	> 100	> 100	> 100	>17.9	>7.2	5.6 ± 0.6	13.8 ± 0.4	–	–
Cc1ccc(NCc2cn(S(=O)(=O)c3ccccc3)nc2-c2ccc(Cl)cc2)cc1 [7l, 4-Methyl-N-[(3-(4-chlorophenyl)-1-(phenylsulfonyl)-1H-pyrazol-4-yl)methyl]anyline]	–	> 100	–	100 to 101	> 100	> 100	> 100	>15.2	>4.2	6.6 ± 0.6	24 ± 1	–	–
Cc1ccc(-c2nn(S(=O)(=O)c3ccccc3)cc2CNc2ccccc2)cc1 [7m, N-[(1-(Phenylsulfonyl)-3-(p-tolyl)-1H-pyrazol-4-yl)methyl]aniline]	–	> 100	–	128 to 129	> 100	> 100	> 100	>8.7	>8.0	11.5 ± 1	12.5 ± 2.1	–	–
Cc1ccc(-c2nn(S(=O)(=O)c3ccccc3)cc2CNc2ccc(Cl)cc2)cc1 [7n, 4-Chloro-N-[(1-(phenylsulfonyl)-3-(p-tolyl)-1H-pyrazol-4-yl)methyl]aniline]	–	> 100	–	115	> 100	> 100	> 100	>19.6	>7.7	5.1 ± 0.6	13 ± 2.8	–	–
Cc1ccc(-c2nn(S(=O)(=O)c3ccccc3)cc2CNc2ccc(Br)cc2)cc1 [7o, 4-Bromo-N-[(1-(phenylsulfonyl)-3-(p-tolyl)-1H-pyrazol-4-yl)methyl]aniline]	–	> 100	–	110	> 100	> 100	> 100	>27.0	>7.4	3.7 ± 1.3	13.5 ± 0.5	–	–
Cc1ccc(NCc2cn(S(=O)(=O)c3ccccc3)nc2-c2ccc(C)cc2)cc1 [7p, 4-Methyl-N-[(1-(phenysulfonyl)-3-(p-tolyl)-1H-pyrazol-4-yl)methyl]aniline]	–	> 100	–	123 to 124	> 100	> 100	> 100	>27.8	>8.3	3.6 ± 0.5	12 ± 2	–	–
COc1ccc(S(=O)(=O)n2cc(CNc3ccccc3)c(-c3ccc(Br)cc3)n2)cc1 [8a]	–	> 100	–	131 to 134	> 100	> 100	> 100	–	–	–	–	5.6 ± 0.8	–
COc1ccc(S(=O)(=O)n2cc(CNc3ccc(Cl)cc3)c(-c3ccc(Br)cc3)n2)cc1 [8b, 4-Chloro-N-[(3-(4-bromophenyl)-1-((4-methoxphenyl)sulfonyl)-1H-pyrazol-4-yl)methyl]aniline]	–	> 100	–	153 to 154	> 100	> 100	> 100	>4.6	–	21.6 ± 0.8	–	20 ± 1.4	>5.0
COc1ccc(S(=O)(=O)n2cc(CNc3ccc(Br)cc3)c(-c3ccc(Br)cc3)n2)cc1 [8c, 4-Bromo-N-[(3-(4-bromophenyl)-1-((4-methoxphenyl)sulfonyl)-1H-pyrazol-4-yl)methyl]aniline]	–	> 100	–	162 to 164	> 100	> 100	> 100	–	–	> 100	–	23 ± 3.5	>4.4
COc1ccc(S(=O)(=O)n2cc(CNc3ccc(C)cc3)c(-c3ccc(Br)cc3)n2)cc1 [8d, 4-Methyl-N-[(3-(4-bromophenyl)-1-((4-methoxphenyl)sulfonyl)-1H-pyrazol-4-yl)methyl]aniline]	–	> 100	–	164 to 166	> 100	100	> 100	>5.5	–	18.3 ± 1.1	–	–	–
COc1ccc(S(=O)(=O)n2cc(CNc3ccccc3)c(-c3ccc(Cl)cc3)n2)cc1 [8e]	–	> 100	–	143 to 145	> 100	> 100	> 100	–	–	–	–	–	–
COc1ccc(S(=O)(=O)n2cc(CNc3ccc(Cl)cc3)c(-c3ccc(Cl)cc3)n2)cc1 [8f, 4-Chloro-N-[(3-(4-chlorophenyl)-1-((4-methoxyphenyl)sulfonyl)-1H-pyrazol-4-yl)methyl]aniline]	–	> 100	–	158 to 159	> 100	> 100	> 100	>6.25	–	16 ± 0.7	–	7.9 ± 0.8	>12.7
COc1ccc(S(=O)(=O)n2cc(CNc3ccc(C)cc3)c(-c3ccc(Cl)cc3)n2)cc1 [8h, 4-Methyl-N-[(3-(4-chlorophenyl)-1-((4-methoxyphenyl)sulfonyl)-1H-pyrazol-4-yl)methyl]aniline]	–	> 100	–	169 to 171	> 100	> 100	> 100	–	–	–	–	–	–
COc1ccc(S(=O)(=O)n2cc(CNc3ccccc3)c(-c3ccc(C)cc3)n2)cc1 [8i, N-[(1-((4-Methoxyphenyl)sulfonyl)-3-(p-tolyl)-1H-pyrazol-4-yl)methyl]aniline]	–	> 100	–	154 to 155	> 100	> 100	> 100	–	–	–	–	–	–
COc1ccc(S(=O)(=O)n2cc(CNc3ccc(Cl)cc3)c(-c3ccc(C)cc3)n2)cc1 [8j]	–	> 100	–	157 to 158	> 100	> 100	> 100	–	–	–	–	–	–
COc1ccc(S(=O)(=O)n2cc(CNc3ccc(Br)cc3)c(-c3ccc(C)cc3)n2)cc1 [8k]	–	> 100	–	151 to 153	> 100	> 100	> 100	–	–	–	–	19.5 ± 1.4	>5.1
COc1ccc(S(=O)(=O)n2cc(CNc3ccc(C)cc3)c(-c3ccc(C)cc3)n2)cc1 [8l, 4-Methyl-N-[(1-((4-methoxyphenyl)sulfonyl)-3-(p-tolyl)-1H-pyrazol-4-yl)methyl]aniline]	–	> 100	–	145 to 146	> 100	> 100	> 100	–	–	–	–	–	–
O=C1Nc2ccc(Cl)cc2[C@@](C#CC2CC2)(C(F)(F)F)O1 [EFV, Efavirenz, reference compound]	–	–	–	–	–	–	40 ± 2.5	–	–	–	–	–	–
